# pIC50: −log10 of the molar value.
# What was measured:
# [1] = system: disordered cell growth induced by transforming Ras-CVLS in COS monkey kidney cells; assay: Cell-based assay: disordered cell growth induced by transforming Ras in COS cells (microscopy)
# Description: (§1) 2. Cell-Based Assay: Transient expression of val^12-Ha-Ras-CVLS and val^12-Ha-Ras-CVLL in COS monkey kidney cells: Effect of farnesyl protein transferase inhibitors on Ras processing and on disordered cell growth induced by transforming Ras.
# (§2) COS monkey kidney cells were transfected by electroporation with the plasmid pSV-SPORT (Gibco/BRL) containing a cDNA insert encoding either Ras-CVLS or Ras-CVLL, leading to transient overexpression of a Ras substrate for either farnesyl protein transferase or geranylgeranyl protein transferase I, respectively (see above).
# (§3) Following electroporation, cells were plated into 6-well tissue culture dishes containing 1.5 ml of Dulbecco's-modified Eagle's media (GIBCO, Inc.) supplemented with 10% fetal calf serum and the appropriate farnesyl protein transferase inhibitors. After 24 hours, media was removed and fresh media containing the appropriate drugs was re-added.
# 48 hours after electroporation cells were examined under the microscope to monitor disordered cell growth induced by transforming Ras. Cells expressing transforming Ras become more rounded and refractile and overgrow the monolayer, reminiscent of the transformed phenotype. […]
# [2] = system: SW620 [human colon adenocarcinoma (lymph node metastasis)]; assay: In vivo anti-tumor study, SW620 s.c. tumor; parameters: species or system mouse; settings: po
# Description: (§4) In Vivo Anti-Tumor Studies
# (§5) Tumor cells (5×10^5 to 8×10^6 of M27 [mouse Lewis lung carcinoma], A431 [human epidermal carcinoma] or SW620 [human colon adenocarcinoma (lymph node metastasis)]) are innoculated subcutaneously into the flank of 5-6 week old athymic nu/nu female mice. For the C-f-1 [mouse fibroblast transformed with c-fos oncogene] tumor model, 2 mm^3 tumor fragments are transplanted subcutaneously into the flank of 5-6 week old athymic nu/nu female mice. Tumor bearing animals are selected and randomized when the tumors are established. Animals are treated with vehicle (beta cyclodextran for i.p. or corn oil for p.o.) only or compounds in vehicle twice a day (BID) for 5 (1-5) or 7 (1-7) days per week for 2 (×2) or 4 (×4) weeks. The percent inhibition of tumor growth relative to vehicle controls are determined by tumor measurements.
# [3] = system: M27 [mouse Lewis lung carcinoma]; assay: In vivo anti-tumor study, M27 s.c. tumor; settings: po
# Description: as §4, §5
# [4] = system: Ras-CVLS processing in COS monkey kidney cells; assay: Cell-based assay: Ras-CVLS processing in transfected COS cells (immunoblot); settings: Primates; inhibition of Ras-CVLS processing in Ras-transfected COS cells
# Description: as §1, §2, §3
# 48 hours after electroporation cells were examined under the microscope to monitor disordered cell growth induced by transforming Ras. Cells expressing transforming Ras become more rounded and refractile and overgrow the monolayer, reminiscent of the transformed phenotype. Cells were then photographed, washed twice with 1 ml of cold phosphate-buffered saline (PBS) and removed from the dish by scraping with a rubber policeman into 1 ml of a buffer containing 25 mM Tris, pH 8.0; 1 mM ethylenediamine tetraacetic acid; 1 mM phenylmethylsulfonyl fluoride; 50 μM leupeptin; and 0.1 μM pepstatin. Cells were lysed by homogenization and cell debris was removed by centrifugation at 2000×g for 10 min.
# Cellular protein was precipitated by addition of ice-cold trichloroacetic acid and redissolved in 100 μl of SDS-electrophoresis sample buffer. Samples (5-10 μl) were loaded onto 14% polyacrylamide minigels (Novex, Inc.) and electrophoresed until the tracking dye neared the bottom of the gel. Proteins resolved on the gels were electroblotted onto nitrocellulose membranes for immunodetection.
# Membranes were blocked by incubation overnight at 4° C. in PBS containing 2.5% dried milk and 0.5% Tween-20 and then incubated with a Ras-specific monoclonal antibody, Y13-259 (Furth, M. E., et al., (1982), Monoclonal antibodies to the p21 products of the transforming gene of Harvey murine sarcome virus and of the cellular ras gene family, J. Virol. 43: 294-304), in PBS containing 1% fetal calf serum for one hour at room temperature. After washing, membranes were incubated for one hour at room temperature with a 1:5000 dilution of secondary antibody, rabbit anti-rat IgG conjugated to horseradish peroxidase, in PBS containing 1% fetal calf serum. The presence of processed and unprocessed Ras-CVLS or Ras-CVLL was detected using a calorimetric peroxidase reagent (4-chloro-1-naphthol) as described by the manufacturer (Bio-Rad).
# [5] = system: C-f-1 [mouse fibroblast transformed with c-fos oncogene]; assay: In vivo anti-tumor study, C-f-1 s.c. tumor; settings: C-f-1 s.c. in athymic nu/nu mice, BID
# Description: as §4, §5
# [6] = system: Normal human HEPM fibroblasts; assay: Cell Mat assay: inhibition of normal cell growth; assay type: cell-based; settings: Homo sapiens, Fibroblast, mIC50, normal cell monolayer
# Experimental: Normal human HEPM fibroblasts were planted in 3.5 cm dishes at a density of 5×10^4 cells/dish in 2 ml growth medium, and incubated for 3-5 d to achieve confluence. Medium was aspirated from each dish and the indicator tumor cells, T24-BAG4 human bladder carcinoma cells expressing an activated H-ras gene, were planted on top of the fibroblast monolayer at a density of 2×10^3cells/dish in 2 ml growth medium, and allowed to attach overnight. Compound-induced colony inhibition was assayed by addition of serial dilutions of compound directly to the growth medium 24 h after tumor cell planting, and incubating cells for an additional 14 d to allow colony formation. Assays were terminated by rinsing monolayers twice with phosphate-buffered saline (PBS), fixing the monolayers with a 1% glutaraldehyde solution in PBS, then visualizing tumor cells by staining with X-Gal (Price, J., et al., Lineage analysis in the vertebrate nervous system by retrovirus-mediated gene transfer, Proc. Natl. Acad. Sci.84, 156-160(1987)). […] Both IC50 values were obtained by determining the density of tumor cells and mat cells by visual inspection and enumeration of cells per colony and the number of colonies under the microscope. The therapeutic index of the compound was quantitatively expressed as the ratio of mIC50/tIC50, with values greater than one indicative of tumor target specificity.
smiles,measurement,setting,value
CCOC(=O)N1CCC(C2(F)c3ccc(Cl)cc3CCc3cccnc32)CC1 (stereo not shown) [Compound 530.00],"response to oncogenic Ras-CVLS (overgrowth of monolayer, dense foci)",[1]; at 6.6 μg/ml,inhibited
same,"response to oncogenic Ras-CVLS (overgrowth of monolayer, dense foci)",[1]; at 20 μg/ml,inhibited
same,average % tumor inhibition,"[2]; SW620, 100 MPK, 10/wk, ×4",57%
same,% Inhibition (tumor growth relative to vehicle controls),"[2]; SW-620 s.c. in athymic nu/nu mice, BID, 1-5, × 4",73%
same,average % tumor inhibition,"[3]; M27, 100 MPK, 14/wk, ×4",37%
same,% Inhibition (tumor growth relative to vehicle controls),"[3]; M27 s.c. in athymic nu/nu mice, BID, 1-7, × 4",49%
same,pIC50,[4],4.81
same,% Inhibition (tumor growth relative to vehicle controls),"[5]; ip, 1-5, × 2",17.8%
same,% Inhibition (tumor growth relative to vehicle controls),"[5]; po, 1-5, × 4",69%
same,IC50,[6],100 µM

# Reference: patent publication US6492381B1, “Tricyclic carbamate compounds useful for inhibition of G-protein function and for treatment of proliferative diseases” (Schering Corp., priority 1993, dated 2002)
